Assay results reported in patent US20070128217A1 (priority 2003, published 2007).

Key:
[1] = system: antibodies in sera from SARS patients (sera 1a, 1b, 2, 6, 37, 62, London, SARS-yellow, SARS-green); assay type: binding, human; design: Binding of serum 6 to linear peptides of protein X1 of SARS-CoV Urbani / Binding of serum 37 to linear peptides of protein X1 of SARS-CoV Urbani / Binding of serum 6 to looped/cyclic peptide (PEPSCAN-ELISA) / Binding of serum 37 to looped/cyclic peptide (PEPSCAN-ELISA) / Binding of serum 37 to looped/cyclic peptides of protein X1 of SARS-CoV Urbani / Binding of serum 6 to linear peptides of protein X2 / Binding of serum 37 to linear peptides of protein X2 / Binding of serum 37 to looped/cyclic peptides of protein X2 of SARS-CoV Urbani / Binding of serum 6 to linear peptides of protein M of SARS-CoV Urbani / Binding of serum 37 to linear peptides of protein M of SARS-CoV Urbani / Binding of serum 6 to looped/cyclic peptides of protein M of SARS-CoV Urbani / Binding of serum 37 to looped/cyclic peptides of protein M of SARS-CoV Urbani / Binding of serum 6 to linear peptides of protein X3 of SARS-CoV Urbani / Binding of serum 37 to linear peptides of protein X3 of SARS-CoV Urbani / Binding of serum 37 to looped/cyclic peptides of protein X3 of SARS-CoV Urbani / Binding of serum 6 to linear peptides of protein X4 of SARS-CoV Urbani / Binding of serum 37 to linear peptides of protein X4 of SARS-CoV Urbani / Binding of serum 37 to looped/cyclic peptides of protein X4 of SARS-CoV Urbani / Binding of serum 6 to linear peptides of protein X5 of SARS-CoV Urbani / Binding of serum 37 to linear peptides of protein X5 of SARS-CoV Urbani / Binding of serum 37 to looped/cyclic peptides of protein X5 of SARS-CoV Urbani / Binding of serum 6 to linear peptides of protein N of SARS-CoV Urbani / Binding of serum 37 to linear peptides of protein N of SARS-CoV Urbani / Binding of serum 6 to linear peptide (PEPSCAN-ELISA) / Binding of serum 1a to looped/cyclic peptides of protein N of SARS-CoV Urbani / Binding of serum 1b to looped/cyclic peptides of protein N of SARS-CoV Urbani / Binding of serum 2 to looped/cyclic peptides of protein N of SARS-CoV Urbani / Binding of serum 6 to looped/cyclic peptides of protein N of SARS-CoV Urbani / Binding of serum 37 to looped/cyclic peptides of protein N of SARS-CoV Urbani / Binding of serum 62 to looped/cyclic peptides of protein N of SARS-CoV Urbani / Binding of serum London to looped/cyclic peptides of protein N of SARS-CoV Urbani / Binding of serum SARS-green to looped/cyclic peptides of protein N of SARS-CoV Urbani: unit not given here
[2] = system: control sera (pooled serum of ten healthy LUMC hospital workers; commercial negative donor pooled serum from the Dutch bloodbank); assay type: binding, human; design: Binding of Control serum LUMC to linear peptides / Binding of Control serum Blood-bank to linear peptides / Binding of Control serum LUMC to looped peptides / Binding of Control Serum Blood-Bank to Looped peptides / Binding of Control serum LUMC to linear peptides of the protein M of SARS-CoV Urbani / Binding of Control serum Blood-bank to linear peptides of the protein M of SARS-CoV Urbani / Binding of Control serum LUMC to looped peptides of the protein M of SARS-CoV Urbani / Binding of Control Serum Blood-Bank to Looped peptides of the protein M of SARS-CoV Urbani: unit not given here
[3] = system: rabbit serum obtained by immunizing a rabbit with the SARS-CoV strain Frankfurt 1; assay type: binding; design: Binding of a rabbit serum to linear peptides / Binding of a rabbit serum to looped peptides / Rabbit serum linear peptides / Rabbit serum looped peptides / Binding of a rabbit serum to linear peptides of protein N of SARS-CoV Urbani (Rabbit serum linear peptides) / Binding of a rabbit serum to looped/cyclic peptides of protein N of SARS-CoV Urbani (Rabbit serum looped peptides): unit not given here

## AMACIVGLMWLSYFV
[1]
  Binding of serum 1a to linear peptides of protein M of SARS-CoV Urbani: 0.7
  Binding of serum 1a to looped/cyclic peptides of protein M of SARS-CoV Urbani: 0.7
  Binding of serum 1b to linear peptides of protein M of SARS-CoV Urbani: 0.5
  Binding of serum 1b to looped/cyclic peptides of protein M of SARS-CoV Urbani: 0.7
  Binding of serum 2 to linear peptides of protein M of SARS-CoV Urbani: 0.6
  Binding of serum 2 to looped/cyclic peptides of protein M of SARS-CoV Urbani: 0.6
  Binding of serum 6 to linear peptides of protein M of SARS-CoV Urbani: 0.4
  Binding of serum 6 to looped/cyclic peptides of protein M of SARS-CoV Urbani: 0.9
  Binding of serum 37 to linear peptides of protein M of SARS-CoV Urbani: 0.6
  Binding of serum 37 to looped/cyclic peptides of protein M of SARS-CoV Urbani: 0.6
  Binding of serum 62 to linear peptides of protein M of SARS-CoV Urbani: 0.6
  Binding of serum 62 to looped/cyclic peptides of protein M of SARS-CoV Urbani: 0.5
  Binding of serum London to linear peptides of protein M of SARS-CoV Urbani: 0.4
  Binding of serum London to looped/cyclic peptides of protein M of SARS-CoV Urbani: 0.2
  Binding of serum SARS-green to linear peptides of protein M of SARS-CoV Urbani: 0.2
  Binding of serum SARS-green to looped/cyclic peptides of protein M of SARS-CoV Urbani: 0.4
  Binding of serum SARS-yellow to linear peptides of protein M of SARS-CoV Urbani: 0.1
  Binding of serum SARS-yellow to looped/cyclic peptides of protein M of SARS-CoV Urbani: 0.6
[2]
  Binding of Control Serum Blood-Bank to Looped peptides of the protein M of SARS-CoV Urbani: 0.6
  Binding of Control serum Blood-bank to linear peptides of the protein M of SARS-CoV Urbani: 0.6
  Binding of Control serum LUMC to linear peptides of the protein M of SARS-CoV Urbani: 0.3
  Binding of Control serum LUMC to looped peptides of the protein M of SARS-CoV Urbani: 0.7
[3]
  Rabbit serum linear peptides: 0.4
  Rabbit serum looped peptides: 0.1

## AQFLYLYALIYFLQC
[1]
  Binding of serum 1a to linear peptides of protein X1 of SARS-CoV Urbani: 0.6
  Binding of serum 1a to looped/cyclic peptide (PEPSCAN-ELISA): 0.5
  Binding of serum 1b to linear peptides of protein X1 of SARS-CoV Urbani: 0.5
  Binding of serum 1b to looped/cyclic peptide (PEPSCAN-ELISA): 0.3
  Binding of serum 2 to linear peptides of protein X1 of SARS-CoV Urbani: 0.5
  Binding of serum 2 to looped/cyclic peptide (PEPSCAN-ELISA): 0.4
  Binding of serum 6 to linear peptides of protein X1 of SARS-CoV Urbani: 0.3
  Binding of serum 6 to looped/cyclic peptide (PEPSCAN-ELISA): 0.2
  Binding of serum 37 to linear peptides of protein X1 of SARS-CoV Urbani: 0.6
  Binding of serum 37 to looped/cyclic peptide (PEPSCAN-ELISA): 0.4
  Binding of serum 62 to linear peptides of protein X1 of SARS-CoV Urbani: 0.4
  Binding of serum 62 to looped/cyclic peptide (PEPSCAN-ELISA): 0.5
  Binding of serum London to linear peptides of protein X1 of SARS-CoV Urbani: 0.2
  Binding of serum London to looped/cyclic peptide (PEPSCAN-ELISA): 0.2
  Binding of serum SARS-green to linear peptides of protein X1 of SARS-CoV Urbani: 0.2
  Binding of serum SARS-green to looped/cyclic peptide (PEPSCAN-ELISA): 0.3
  Binding of serum SARS-yellow to linear peptides of protein X1 of SARS-CoV Urbani: 0.4
  Binding of serum SARS-yellow to looped/cyclic peptide (PEPSCAN-ELISA): 0.3
[2]
  Binding of Control Serum Blood-Bank to Looped peptides: 0.4
  Binding of Control serum Blood-bank to linear peptides: 0.4
  Binding of Control serum LUMC to linear peptides: 0.5
  Binding of Control serum LUMC to looped peptides: 0.5
[3]
  Binding of a rabbit serum to linear peptides: 0.2
  Binding of a rabbit serum to looped peptides: 0.5

## ASFRLFARTRSMWSF
[1]
  Binding of serum 1a to linear peptides of protein M of SARS-CoV Urbani: 0.7
  Binding of serum 1a to looped/cyclic peptides of protein M of SARS-CoV Urbani: 0.6
  Binding of serum 1b to linear peptides of protein M of SARS-CoV Urbani: 0.6
  Binding of serum 1b to looped/cyclic peptides of protein M of SARS-CoV Urbani: 0.5
  Binding of serum 2 to linear peptides of protein M of SARS-CoV Urbani: 0.5
  Binding of serum 2 to looped/cyclic peptides of protein M of SARS-CoV Urbani: 0.5
  Binding of serum 6 to linear peptides of protein M of SARS-CoV Urbani: 0.7
  Binding of serum 6 to looped/cyclic peptides of protein M of SARS-CoV Urbani: 0.9
  Binding of serum 37 to linear peptides of protein M of SARS-CoV Urbani: 0.4
  Binding of serum 37 to looped/cyclic peptides of protein M of SARS-CoV Urbani: 0.5
  Binding of serum 62 to linear peptides of protein M of SARS-CoV Urbani: 0.4
  Binding of serum 62 to looped/cyclic peptides of protein M of SARS-CoV Urbani: 0.5
  Binding of serum London to linear peptides of protein M of SARS-CoV Urbani: 0.3
  Binding of serum London to looped/cyclic peptides of protein M of SARS-CoV Urbani: 0.2
  Binding of serum SARS-green to linear peptides of protein M of SARS-CoV Urbani: 0.4
  Binding of serum SARS-green to looped/cyclic peptides of protein M of SARS-CoV Urbani: 0.2
  Binding of serum SARS-yellow to linear peptides of protein M of SARS-CoV Urbani: 0.2
  Binding of serum SARS-yellow to looped/cyclic peptides of protein M of SARS-CoV Urbani: 0.6
[2]
  Binding of Control Serum Blood-Bank to Looped peptides of the protein M of SARS-CoV Urbani: 0.7
  Binding of Control serum Blood-bank to linear peptides of the protein M of SARS-CoV Urbani: 0.7
  Binding of Control serum LUMC to linear peptides of the protein M of SARS-CoV Urbani: 0.6
  Binding of Control serum LUMC to looped peptides of the protein M of SARS-CoV Urbani: 0.7
[3]
  Rabbit serum linear peptides: 0.3
  Rabbit serum looped peptides: 0.2
